# From PMC6429459, “The HslV Protease from Leishmania major and Its Activation by C-terminal HslU Peptides” (International Journal of Molecular Sciences, 2019)
# * marks the point of attachment. AMC = Cc1cc(=O)oc2cc(N*)ccc12; Cbz = O=C(OCc1ccccc1)*
# Tests used:
# LmHslV = experiment: Degradation of fluorogenic substrates by LmC12-U2-activated LmHslV; assay type: biochemical, Leishmania major; details: LmHslV 75.2 nM, 37 °C, substrate 100 μM, activating peptide LmC12-U2 500 μM; Figure 2; in words
# Method: Activity assay: The peptidase activity of recombinant LmHslV was assessed by measuring the fluorescence of AMC released after hydrolysis of the fluorogenic substrates Z-GGL-AMC or JMV4482 (Z-EVNL-AMC), 100 µM. LmHslV activation was obtained by addition of activating peptides (see type and concentration in the figure legends). Activity buffer: 25 mM Tris-HCl pH 8.0, 1 mM DTT, 0.5 mM EDTA and 5 mM MgCl2. Most of the experiments were performed in a final volume of 50 µL in black 96-well microplates (Fisher Scientific, Illkirch, France. Fluorescence was measured using a spectrofluorimeter (BIO-TEK Instrument, Inc., Winooski, VT, USA): filters 360/340 for excitation and 460/440 for emission.
# Figure 2 Degradation of different fluorogenic substrates by LmHslV. LmHslV (75.2 nM) was incubated at 37 °C with different fluorogenic substrates (100 μM) in the presence of the activating peptide LmC12-U2 (500 μM). The fluorescence of the free AMC group, proportional to the activity of the sample, was measured at 2 min. intervals. With each substrate, no activity was measured in the absence of activating peptide: for the sake of clarity, only the negative control values obtained with the substrate ZGGL-AMC are shown.
# [1] = target: HslV from E. coli (EcHslV) (Escherichia coli, UniProt P0A7B8); details: compared with Z-GGL-AMC; in words
# Description: A further improvement to our assays was the development of a novel fluorogenic peptide substrate, which was more convenient to use than Z-GGL-AMC. Indeed, although the substrate Z-GGL-AMC mostly used in the literature for the studies of HslV has proven useful, its use is limited by its poor solubility in aqueous solutions [6, 36]. In view of finding alternative substrates for LmHslV, we tested a variety of possible fluorogenic substrates (commercial or home-made) including Suc-LLVY-AMC, a classical substrate used for the eukaryotic proteasome, in the presence of the reference activator peptide LmC12-U2.
# [2] = Solubility in aqueous assay solutions (observation); details: aqueous assay conditions, peptide concentrations in the millimolar range; in words
# Sequence of HslV from E. coli (EcHslV) (P0A7B8 2-176): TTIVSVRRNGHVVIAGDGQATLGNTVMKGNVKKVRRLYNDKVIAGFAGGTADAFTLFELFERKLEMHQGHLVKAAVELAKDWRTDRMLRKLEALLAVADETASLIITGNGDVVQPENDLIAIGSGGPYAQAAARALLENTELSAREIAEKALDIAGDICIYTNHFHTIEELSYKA
Substance,Degradation of fluorogenic substrate by activated LmHslV (LmHslV),Degradation of fluorogenic substrate by EcHslV [1],Solubility of activating peptide [2]
Cbz-EVNL-{AMC} (SMILES Cc1cc(=O)oc2cc(NC(=O)[C@H](CC(C)C)NC(=O)[C@H](CC(N)=O)NC(=O)[C@@H](NC(=O)[C@H](CCC(=O)O)NC(=O)OCc3ccccc3)C(C)C)ccc12) [Z-EVNL-AMC],more efficiently degraded by LmHslV than Z-GGL-AMC and Suc-LLVY-AMC,more efficiently degraded by HslV from E. coli (EcHslV) than Z-GGL-AMC,
H-VNLAKYLL-OH [Compound 3],,,not soluble enough for reliable results
